Four molecules from publication PMC10609873, “Antidiabetic, Antihyperlipidemic, and Antioxidant Evaluation of Phytosteroids from Notholirion thomsonianum (Royle) Stapf” (Plants, 2023) can be followed below.

≈ marks a conversion by molar mass, not a printed value.

Series [1] relates to alloxan-induced diabetic rats. Put plainly: body weight of fasting rats during treatment. The class given is in vivo. Particulars: NtSt01 1.0 mg/kg, glibenclamide 0.5 mg/kg. The method, then:
Group 3: This group was the alloxan-induced diabetic group, which was treated with 0.5 mg/kg of the standard drug, glibenclamide.
Group 4: This group was the alloxan-induced diabetic group, which was treated with 1.0 mg/kg of NtSt01 intraperitoneally.

In series [2] the test system is alloxan-induced diabetic rats. As to the kind of experiment: vital organ weights of fasting rats after treatment. Particulars: after the 28-day experiment; NtSt01 1.0 mg/kg, glibenclamide 0.5 mg/kg. The class given is in vivo. The text has this: The experimental rats were purchased from the Breeding House of National Institute Health, Islamabad, Pakistan. The average weights of these rats ranged from 220 to 250 g. The animals were handled as per the guidelines of the University of […] animals By-Laws 2008 (Scientific Procedure Issue I) under the approval of the ethical committee via letter No. DREC-140/B. The food, water, and light/dark cycles provided to animals were observed by the ethical committee. The animals were euthanized as per the AVMA guidelines version 2020. The animals were subjected to slow exposure of halothane vapors to induce anesthesia. There was a gradual increase in the dosage of halothane vapors, which eventually euthanized the animals. […] Group 3: […] Group 4: […]

Series [3] relates to alloxan-induced diabetic rats. Put plainly: lipid profile (antilipidemic effect). It counts as in vivo. Conditions: NtSt01 1.0 mg/kg, glibenclamide 0.5 mg/kg; for LDL / S.Cholesterol: reference range 10–54; for S.Triglycerides: reference range 26–145; for HDL: reference range up to 50. The method, then:
Standard methods were used for the analysis of total cholesterol, serum triglycerides, low-density lipoprotein (LDL), and high-density lipoprotein (HDL). Briefly, […] of serum sample was added to […] solution of triglyceride. The mixture was incubated for 10 min at 37 °C and the absorbance was recorded at 546 nm. To monitor blood cholesterol, diagnostic kits were utilized following the specifications of the manufacturer. […] For HDL concentration determination, 200 µL of serum sample and 500 µL of HDL solution were combined, and the mixture was allowed to stand at room temperature for 5 min. Again, the mixture was mixed and subjected to further centrifugation for 5 min, followed by supernatant collection. Then, 50 µL of supernatant of HDL was added to 500 µL of solution of cholesterol; the mixture was incubated at 37 °C for 5 min. Then, at 546 nm, the sample absorbance was measured. Similarly, LDL was determined in all groups following the manufacturer’s specifications. LDL = Total cholesterol […] − Triglycerides/5(4)

Series [4] concerns alloxan-induced diabetic rats. Put plainly: renal and liver function tests (biochemical profile of blood). Conditions: NtSt01 1.0 mg/kg, standard glibenclamide; for S.Creatinine: reference range 0.4–0.8; for SGPT(ALT): reference range 17–30; for S.ALK.Phosphatase: reference range 30–130; for S.bilurubin: reference range up to 1.0.
Experimental: Renal functions tests were performed to determine blood urea and serum creatinine [38]. To determine blood urea, enzyme reagent 1 (1000 µL) and 10 µL of serum were mixed together and incubated for 5 min at 25 °C, followed by the addition of 1000 µL of reagent 2 to the mixture. After 5 min, the absorbance was recorded at 578 nm.
Serum glutamate pyruvate transaminase (SGPT/ALT), alkaline phosphatase (ALP), and bilirubin tests were performed following standard protocols using micro lab 300 and tecno plus biochemistry analyzers [39]. To perform the SGPT/ALT test, 50 µL of serum sample was added to 500 µL of reagent (400 µL of reagent 1 and 100 µL of reagent 2). […] To determine ALP, a kit was used following the manufacturer’s specifications: 10 µL of serum sample was added to 500 µL of reagent (400 µL of reagent 1 and 100 µL of reagent 2). […] Similarly, the concentration of bilirubin was evaluated using standard protocols. Four types of reagents, R1, R2, R3, and R4, were used in this test. R2 (25 µL) was added to R1 (100 µL). After this, 100 µL of serum sample and 500 µL of R3 were added and allowed to stand at 25 °C for 5 min. Then, 500 µL of R4 was added; at 25 °C for 5 min, the mixture was incubated. The absorbance of the sample was recorded at 546 nm.
Series [5] deals with α-glucosidase (Saccharomyces cerevisiae, UniProt P53341). Put plainly: in vitro α-glucosidase inhibition. The class given is biochemical. The method, then: The alpha-glucosidase inhibitory effects of our compounds were determined via a reported protocol. Sample dilutions (50 µL) and 100 µL of α-glucosidase solution (0.5 U/mL) were mixed. Then, 600 μL of phosphate buffer (0.1 M, pH 6.9) was added, and the mixture was incubated at 37 °C for 15 min. After this, 5 mM substrate (p-nitrophenyl α-D-glucopyranoside) solution (20 µL) in 0.1 M phosphate buffer (pH 6.9) was added and again incubated under the same conditions. Sodium carbonate was added to stop the reaction; at 405 nm, the absorbance was noted using a spectrophotometer. A mixture without α-glucosidase served as the blank, and a mixture without the test compound served as the control. The percent enzyme inhibition was calculated as:(1) % Alpha glucosidase inhibition=Control abs.−Sample abs./Control abs.×100
Chain of α-glucosidase (P53341 whole entry): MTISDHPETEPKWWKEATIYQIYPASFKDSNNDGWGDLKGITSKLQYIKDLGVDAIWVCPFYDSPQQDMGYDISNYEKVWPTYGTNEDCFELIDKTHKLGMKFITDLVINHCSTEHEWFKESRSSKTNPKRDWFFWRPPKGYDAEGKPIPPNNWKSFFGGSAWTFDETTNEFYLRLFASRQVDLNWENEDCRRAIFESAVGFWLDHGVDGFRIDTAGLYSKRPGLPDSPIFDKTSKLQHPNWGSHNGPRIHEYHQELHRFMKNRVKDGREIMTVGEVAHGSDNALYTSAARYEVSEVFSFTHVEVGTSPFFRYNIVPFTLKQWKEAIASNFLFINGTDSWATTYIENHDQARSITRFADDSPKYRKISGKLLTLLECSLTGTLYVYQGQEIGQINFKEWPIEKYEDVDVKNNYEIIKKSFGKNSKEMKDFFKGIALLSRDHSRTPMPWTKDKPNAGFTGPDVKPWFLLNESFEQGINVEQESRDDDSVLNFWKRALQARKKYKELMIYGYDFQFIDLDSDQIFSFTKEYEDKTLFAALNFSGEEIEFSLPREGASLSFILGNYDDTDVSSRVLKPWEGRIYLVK

The subject of series [6] is α-amylase. As to the kind of experiment: in vitro α-amylase inhibition. The class given is biochemical. The procedure: The inhibitory activity of our compounds against alpha-amylase enzymes was determined as per the previously reported protocols. Test samples of 100 µL were mixed with an enzyme solution (200 µL) and 100 µL of phosphate buffer (pH 6.9, 2 mM). The mixture was then incubated at 25 °C for 20 min, followed by the addition of 100 µL of starch solution (1%). The same procedure was followed for positive controls, where phosphate buffer was added instead of […] (200 µL). After 5 min of incubation, 3,5-dinitrosalicylic acid reagent (500 µL) was added to the test samples and control group. The mixtures were incubated again for 10 min; at 580 nm, the absorbance was recorded using a spectrophotometer. The alpha-amylase percent inhibition was calculated as:(2) % Amylase inhibition=1−Test sample abs./Control abs.×100

Series [7] can be described thus: DPPH free radical scavenging assay. The procedure:
To evaluate the antioxidant potential of our compounds, the DPPH free radical scavenging assay developed by Brand William was used. The DPPH solution was made by dissolving 20 mg of DPPH in 100 mL of methanol, and its absorbance at 517 nm was adjusted to 0.75. Then, 2 mL of DPPH solution was added to 2 mL of sample dilutions ranging from 31.25 to 500 µg/mL, and the mixture was incubated at room temperature in the dark for 15 min. […] (3) % Inhibition=Control abs.−Sample abs./Control abs.×100

Series [8] has as its system rats. As to the kind of experiment: acute toxicity study in rats. It counts as in vivo. Conditions: dose started at 200 and increased up to 2000 mg/kg body weight. The procedure: In experimental animals, acute toxicity studies were performed to determine the safe dose of our test compounds for in vivo studies.

In series [1] (Day 1), `COc1ccc(Cl)cc1C(=O)NCCc1ccc(S(=O)(=O)NC(=O)NC2CCCCC2)cc1` [Glibenclamide, glibenclamide, reference compound] returned a body weight of 235 ± 1.36 g. The molecule also registered a body weight in series [1] (Day 7) of 236 ± 1.37 g. Besides, the body weight in series [1] (Day 14) came out at 239 ± 0.67 g. In series [1] (Day 21), this molecule returned a body weight of 244 ± 2.38 g. Further, the body weight in series [1] (Day 28) is on record as 249 ± 3.18 g. Further, in series [2], the Heart weight was 0.90 ± 0.02 g, the Kidney weight came out at 0.99 ± 0.16 g, the Liver weight was determined as 9.21 ± 0.66 g and the Pancreas weight is on record as 0.84 ± 0.21 g. In series [3], this molecule had an LDL of 34.16 ± 2.66, a S.Cholesterol of 59.98 ± 0.99, a S.Triglycerides of 112 ± 0.99 and an HDL of 32.55 ± 2.35. Further, in series [4], the S.Creatinine was determined as 0.43 ± 0.01 mg/dL, the “SGPT(ALT)” value came to 37 ± 1.11 U/L, the S.ALK.Phosphatase is 125 ± 1.22 U/L and the S.bilurubin was 0.81 ± 0.03 mg/dL.

`CCC(C=CC(C)C1CCC2C3C=CC4=CC(OC(C)=O)CCC4(C)C3CCC12C)C(C)C` (stereo not drawn) [NtSt01, 3-β-Acetoxystigmasta-4,6,22-triene]: the “potency relative to NtSt02 (from IC50 values)” value is reported as “three times more potent than NtSt02” in series [5] (α-glucosidase) and “eleven folds more potent than NtSt02” in series [6] (α-amylase). For the same molecule, the “Percent Inhibition (Mean ± SEM)” value in series [6] (31.25 μg/mL) is recorded as 62.35 ± 1.78%; in series [6] (62.50 μg/mL), 67.63 ± 2.51%; in series [6] (125 μg/mL), 71.63 ± 0.92%; in series [6] (250 μg/mL), 75.52 ± 0.96%; in series [6] (500 μg/mL), 80.03 ± 2.11%; in series [7] (31.25 μg/mL), 37.25 ± 2.66%. Besides, the “Percent Inhibition (Mean ± SEM)” value in series [7] (62.50 μg/mL) is on record as 42.53 ± 0.69%; in series [7] (125 μg/mL) it was 47.08 ± 2.41%; in series [7] (250 μg/mL) it was 55.79 ± 0.92%; in series [7] (500 μg/mL), 61.05 ± 2.05%. Moreover, the IC50 (commonly the point on the concentration scale where inhibition reaches its midpoint) was determined as 4.17 µg/mL (≈ 9.21 µM) in series [6] (α-amylase) and 142.76 µg/mL (≈ 315 µM) in series [7]. Also, the acute toxicity observation entry in series [8] is “safe and no morbidity, mortality or irritation was observed”. The body weight in series [1] (Day 1) worked out at 238 ± 0.33 g; in series [1] (Day 7), 240 ± 0.49 g; in series [1] (Day 14), 242 ± 1.04 g; in series [1] (Day 21), 245 ± 1.11 g; in series [1] (Day 28), 246 ± 0.11 g. Further, the Heart weight in series [2] is recorded as 1.04 ± 0.13 g. In series [2], the Kidney weight worked out at 1.01 ± 0.15 g. The molecule further displayed a Liver weight in series [2] of 9.83 ± 0.92 g. This molecule also came in with a Pancreas weight in series [2] of 0.92 ± 0.12 g. This molecule also displayed an LDL in series [3] of 48.85 ± 1.08. This molecule also registered a S.Cholesterol in series [3] of 77.45 ± 1.72. Moreover, in series [3], the S.Triglycerides turned out to be 125 ± 3.65. The HDL in series [3] is on record as 38.10 ± 1.64. Further, the S.Creatinine in series [4] came out at 0.6 ± 0.02 mg/dL. Besides, the “SGPT(ALT)” value in series [4] is 32 ± 0.25 U/L. This molecule also displayed a S.ALK.Phosphatase in series [4] of 134 ± 2.33 U/L. This molecule also yielded a S.bilurubin in series [4] of 0.72 ± 0.77 mg/dL.

As for `CC(C)CCC[C@@H](C)[C@H]1CC[C@H]2[C@@H]3C=CC4=C[C@@H](OC(=O)c5ccccc5)CC[C@]4(C)[C@H]3CC[C@]12C` [NtSt02, 4,6-cholestadien-3beta-ol, benzoate], the “Percent Inhibition (Mean ± SEM)” value in series [6] (31.25 μg/mL) is given as 46.84 ± 0.67%; in series [6] (62.50 μg/mL), 53.10 ± 2.05%; in series [6] (125 μg/mL) it was 60.04 ± 0.86%; in series [6] (250 μg/mL) it was 64.32 ± 1.85%; in series [6] (500 μg/mL) it was 74.99 ± 1.53%; in series [7] (31.25 μg/mL), 28.52 ± 2.63%. Moreover, the “Percent Inhibition (Mean ± SEM)” value in series [7] (62.50 μg/mL) came out at 33.08 ± 1.17%; in series [7] (125 μg/mL) it was 42.99 ± 2.70%; in series [7] (250 μg/mL), 52.01 ± 1.07%; in series [7] (500 μg/mL), 59.12 ± 1.96%. For the same molecule, the IC50 in series [6] (α-amylase) was 46.73 µg/mL (≈ 95.6 µM); in series [7], 223.43 µg/mL (≈ 457 µM).

For `C[C@H]1O[C@H](O[C@H]2[C@H](O)[C@@H](O)[C@@H](O[C@H]3[C@H](O)[C@@H](O)C(O)O[C@@H]3CO)O[C@@H]2CO)[C@H](O)[C@@H](O)[C@@H]1N[C@H]1C=C(CO)[C@@H](O)[C@H](O)[C@H]1O` (stereo partly drawn) [acarbose, reference compound], the “Percent Inhibition (Mean ± SEM)” value in series [5] is recorded as 92.65 ± 0.55%; in series [6] (500 μg/mL), 91.01 ± 1.36%.
